Patent publication EP0320984A2, “1,4-Dihydropyridine derivatives” (FUJIREBIO INC., priority 1987, dated 1989)

Assays:
Thoracic aortas = assay: Inhibitory activity on KCl-induced contraction of aorta (helical strips of thoracic aorta); parameters: species or system male rabbits; conditions: 10^-6M, 60min after addition; 30 mM KCl, rabbit aorta strips, 37°C
Protocol: 2. Experiment for inhibitory activity on KCl-induced contraction of aorta: Thoracic aortas were isolated from male rabbits and cut into helical strips. The preparations were mounted vertically in organ baths containing 30 ml of Krebs- Henseleit solution. […] Test and reference compounds were added to the bath 30 minutes after KCl treatment.

[1] = test system: Rabbit platelet rich plasma (PRP); assay: Inhibitory activity on platelet aggregation in rabbit platelet rich plasma (light transmission); format: cell-based; conditions: added to PRP 30 minutes before agent; for Inhibitory activity on platelet aggregation, ADP / Inhibitory activity on platelet aggregation, Collagen / Inhibitory activity on platelet aggregation, AA: compound 10^-4 (unit not given); for Inhibitory activity on platelet aggregation, ADP: Adenosine diphosphate (ADP) 5 mM; for Inhibitory activity on platelet aggregation, Collagen: aggregating agent collagen; for Inhibitory activity on platelet aggregation, PAF: compound 3x10^-6 (unit not given), Platelet activating factor (PAF) 10 mg/ml; for Inhibitory activity on platelet aggregation, AA: Arachidonic acid (AA) 1 mM
Protocol: 3. Experiment for inhibitory activity on platelet aggregation in rabbit:
Rabbit platelet rich plasma (PRP) was prepared by centrifugation of the citrated blood at 380 g for 10 minutes at 20°C. Test solution (10 µl) was added to PRP (200 µl) 30 minutes before treatment of aggregation agents (10 µl). The extent of aggregation was expressed with the maximum change in light transmission for PRP and platelet poor plasma was taken as a value of 100%

Row | SMILES | Inhibitory effect on KCl-induced contraction (Thoracic aortas) [%] | Inhibitory activity on platelet aggregation, ADP [1] [%] | Inhibitory activity on platelet aggregation, Collagen [1] [%] | Inhibitory activity on platelet aggregation, PAF [1] [%] | Inhibitory activity on platelet aggregation, AA [1] [%]
1 | COC(=O)C1=C(C)NC(C)=C(C(=O)OCCN(C)Cc2ccccc2)C1c1cccc([N+](=O)[O-])c1.Cl (centres unmarked) [NICARDIPINE, 1,4-dihydro-2,6-dimethyl-4-(3-nitrophenyl)pyridine-3,5-dicarboxylic acid-3-[2-(N-benzyl-N-methylamino)ethyl]ester-5-methyl ester hydrochloride, reference compound] | 91.1 | 6.9 | 3.6 |  | 
2 | COC(=O)C1=C(C)NC(C)=C(C(=O)OC/C=C/c2ccc(C(C)n3ccnc3)cc2)C1c1cccc([N+](=O)[O-])c1 (centres unmarked) [Example 24, (E)-3-{4-{1-(1-imidazolyl)ethyl}phenyl}-2-propen-1-yl methyl 1,4-dihydro-2,6-dimethyl-4-(3-nitrophenyl)pyridine-3,5-dicarboxylate] | 74.3 | 7.8 | 27.5 | 18.3 | 28.2
3 | C/C=C/C=C/COC(=O)C1=C(C)NC(C)=C(C(=O)OC/C=C/c2ccc(Cn3ccnc3)cc2)C1c1cccc([N+](=O)[O-])c1 (centres unmarked) [Example 15, (E)-2,(E)-4-hexadien-1-yl (E)-3-{4-(1-imidazolylmethyl)phenyl}2-propen-1-yl 1,4-dihydro-2,6-dimethyl-4-(3-nitrophenyl)pyridine-3,5-dicarboxylate] | 21.6 | 8.8 | 10.5 | 74.1 | 30.2
4 | COC(=O)C1=C(C)NC(C)=C(C(=O)OC)C1c1ccccc1[N+](=O)[O-] [NIFEDIPINE, 1,4-dihydro-2,6-dimethyl-4-(2-nitrophenyl)pyridine-3,5-dicarboxylic acid dimethyl ester, reference compound] | 87.6 | 0 | 5.1 |  | 0.2
5 | COC(=O)C1=C(C)NC(C)=C(C(=O)OC/C=C/C=C/c2ccc(Cn3ccnc3)cc2)C1c1cccc([N+](=O)[O-])c1 (centres unmarked) [Example 19, 5-{4-(1-imidazolylmethyl)phenyl}-(E)-2,(E)-4-pentadien-1-yl methyl 1,4-dihydro-2,6-dimethyl-4-(3-nitrophenyl)pyridine-3,5-dicarboxylate] | 68.8 | 17.2 | 66.3 | 41.5 | 35.5
6 | COC(=O)C1=C(C)NC(C)=C(C(=O)OCCON=Cc2ccc(Cn3ccnc3)cc2)C1c1cccc([N+](=O)[O-])c1 (centres unmarked) [Example 26, 2-[{4-(1-imidazolylmethyl)benzylideneamino}oxy]ethyl methyl 1,4-dihydro-2,6-dimethyl-4-(3-nitrophenyl)pyridine3,5-dicarboxylate] |  | 6.0 | 13.5 | 30.0 | 27.6
7 | COC(=O)C1=C(C)NC(C)=C(C(=O)OC/C(F)=C/c2ccc(Cn3ccnc3)cc2)C1c1cccc([N+](=O)[O-])c1 (centres unmarked) [Example 13, (Z)-3-{4-(1-imidazolylmethyl)phenyl}-2-fluoro-2-propen-1-yl methyl 1,4-dihydro-2,6-dimethyl-4-(3-nitrophenyl)pyridine-3,5-dicarboxylate] |  | 10.9 | 6.3 | 49.6 | 17.4
8 | COC(=O)C1=C(C)NC(C)=C(C(=O)OC/C=C/c2ccc(Cn3ccnc3)cc2)C1c1ccccc1C#N (centres unmarked) [Example 18, (E)-3-{4-(1-imidazolylmethyl)phenyl}-2-propen-1-yl methyl 1,4-dihydro-2,6-dimethyl-4-(2-cyanophenyl)pyridine-3,5-dicarboxylate] |  | 8.8 | 61.8 | 48.6 | 30.4
9 | COC(=O)C1=C(C)NC(C)=C(C(=O)OC/C=C/c2ccc(Cn3ccnc3)cc2)C1c1cccc(Cl)c1Cl (centres unmarked) [Example 12, (E)-3-{4-(1-imidazolylmethyl)phenyl}-2-propen-1-yl methyl 1,4-dihydro-2,6-dimethyl-4-(2,3-dichlorophenyl)pyridine-3,5-dicarboxylate] |  | 7.3 | 10.3 | 51.8 | 11.4
